# PubChem BioAssay (NCI)
#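 Compound exposure: 48 hours, 5 concentrations, 96-well plates. Definition used: TGI = concentration required for complete inhibition of growth.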
# Legend:
# Assay in all cases: DTP human tumour cell line panel, 48 h
# [1] = tested on: 786-0 renal
# [2] = tested on: A498 renal
# [3] = tested on: A549 NSCLC
# [4] = tested on: ACHN renal
# [5] = tested on: CAKI-1 renal
# [6] = tested on: CCRF-CEM leukemia
# [7] = tested on: COLO 205 colon
# [8] = tested on: DU-145 prostate
# [9] = tested on: EKVX NSCLC
# [10] = tested on: HCC-2998 colon
# [11] = tested on: HCT-116 colon
# [12] = tested on: HCT-15 colon
# [13] = tested on: HL-60(TB) leukemia
# [14] = tested on: HOP-62 NSCLC
# [15] = tested on: HOP-92 NSCLC
# [16] = tested on: HT29 colon
# [17] = tested on: IGROV1 ovarian
# [18] = tested on: K-562 leukemia
# [19] = tested on: KM12 colon
# [20] = tested on: LOX IMVI melanoma
# [21] = tested on: M14 melanoma
# [22] = tested on: MALME-3M melanoma
# [23] = tested on: MCF7 breast
# [24] = tested on: MDA-MB-231 breast
# [25] = tested on: MDA-MB-435
# [26] = tested on: MDA-N
# [27] = tested on: MOLT-4 leukemia
# [28] = tested on: NCI-H226 lung
# [29] = tested on: NCI-H23 lung
# [30] = tested on: NCI-H522 lung
# [31] = tested on: NCI/ADR-RES ovarian
# [32] = tested on: OVCAR-3 ovarian
# [33] = tested on: OVCAR-4 ovarian
# [34] = tested on: OVCAR-8 ovarian
# [35] = tested on: PC-3 prostate
# [36] = tested on: RPMI-8226 leukemia
# [37] = tested on: RXF 393 renal
# [38] = tested on: SF-295 CNS
# [39] = tested on: SF-539 CNS
# [40] = tested on: SK-MEL-2 melanoma
# [41] = tested on: SK-MEL-28 melanoma
# [42] = tested on: SK-MEL-5 melanoma
# [43] = tested on: SK-OV-3 ovarian
# [44] = tested on: SN12C renal
# [45] = tested on: SNB-19 CNS
# [46] = tested on: SNB-75 CNS
# [47] = tested on: SW-620 colon
# [48] = tested on: T-47D breast
# [49] = tested on: TK-10 renal
# [50] = tested on: U251 CNS
# [51] = tested on: UACC-257 melanoma
# [52] = tested on: UACC-62 melanoma
# [53] = tested on: UO-31 renal
# [54] = tested on: BT-549 breast
# [55] = tested on: NCI-H460 lung
# [56] = tested on: OVCAR-5 ovarian
# [57] = tested on: SF-268 CNS
# [58] = tested on: SR leukemia
smiles,measurement,setting,value
COc1ccc(Nc2c[nH]c(=O)[nH]c2=O)cc1,TGI,[1],> 100 µM
same,TGI,[2],> 100 µM
same,TGI,[3],> 100 µM
same,TGI,[4],> 100 µM
same,TGI,[5],> 100 µM
same,TGI,[6],> 100 µM
same,TGI,[7],> 100 µM
same,TGI,[8],> 100 µM
same,TGI,[9],> 100 µM
same,TGI,[10],> 100 µM
same,TGI,[11],> 100 µM
same,TGI,[12],> 100 µM
same,TGI,[13],> 100 µM
same,TGI,[14],> 100 µM
same,TGI,[15],> 100 µM
same,TGI,[16],> 100 µM
same,TGI,[17],> 100 µM
same,TGI,[18],> 100 µM
same,TGI,[19],> 100 µM
same,TGI,[20],> 100 µM
same,TGI,[21],> 100 µM
same,TGI,[22],> 100 µM
same,TGI,[23],> 100 µM
same,TGI,[24],> 100 µM
same,TGI,[25],> 100 µM
same,TGI,[26],> 100 µM
same,TGI,[27],> 100 µM
same,TGI,[28],> 100 µM
same,TGI,[29],> 100 µM
same,TGI,[30],> 100 µM
same,TGI,[31],> 100 µM
same,TGI,[32],> 100 µM
same,TGI,[33],> 100 µM
same,TGI,[34],> 100 µM
same,TGI,[35],> 100 µM
same,TGI,[36],> 100 µM
same,TGI,[37],> 100 µM
same,TGI,[38],> 100 µM
same,TGI,[39],> 100 µM
same,TGI,[40],> 100 µM
same,TGI,[41],> 100 µM
same,TGI,[42],> 100 µM
same,TGI,[43],> 100 µM
same,TGI,[44],> 100 µM
same,TGI,[45],> 100 µM
same,TGI,[46],> 100 µM
same,TGI,[47],> 100 µM
same,TGI,[48],> 100 µM
same,TGI,[49],> 100 µM
same,TGI,[50],> 100 µM
same,TGI,[51],> 100 µM
same,TGI,[52],> 100 µM
same,TGI,[53],> 100 µM
c1ccc(-c2nc3ccccc3n3nnnc23)cc1,TGI,[1],> 100 µM
same,TGI,[2],> 100 µM
same,TGI,[3],> 100 µM
same,TGI,[4],> 100 µM
same,TGI,[54],> 100 µM
same,TGI,[6],> 100 µM
same,TGI,[7],> 100 µM
same,TGI,[8],> 100 µM
same,TGI,[9],> 100 µM
same,TGI,[10],> 100 µM
same,TGI,[11],> 100 µM
same,TGI,[12],> 100 µM
same,TGI,[13],> 100 µM
same,TGI,[14],> 100 µM
same,TGI,[15],> 100 µM
same,TGI,[16],> 100 µM
same,TGI,[17],> 100 µM
same,TGI,[18],> 100 µM
same,TGI,[19],> 100 µM
same,TGI,[20],> 100 µM
same,TGI,[21],> 100 µM
same,TGI,[22],> 100 µM
same,TGI,[23],> 100 µM
same,TGI,[24],> 100 µM
same,TGI,[25],> 100 µM
same,TGI,[26],> 100 µM
same,TGI,[27],> 100 µM
same,TGI,[28],> 100 µM
same,TGI,[29],> 100 µM
same,TGI,[55],> 100 µM
same,TGI,[31],> 100 µM
same,TGI,[32],> 100 µM
same,TGI,[33],> 100 µM
same,TGI,[56],> 100 µM
same,TGI,[35],> 100 µM
same,TGI,[36],> 100 µM
same,TGI,[37],> 100 µM
same,TGI,[57],> 100 µM
same,TGI,[39],> 100 µM
same,TGI,[40],> 100 µM
same,TGI,[41],> 100 µM
same,TGI,[42],> 100 µM
same,TGI,[43],> 100 µM
same,TGI,[44],> 100 µM
same,TGI,[45],> 100 µM
same,TGI,[58],> 100 µM
same,TGI,[47],> 100 µM
same,TGI,[48],97.3 µM
same,TGI,[49],> 100 µM
same,TGI,[50],> 100 µM
same,TGI,[51],> 100 µM
same,TGI,[52],> 100 µM
same,TGI,[53],1.57 µM
